Assay results from US20240366770A1, “DEGRADATION OF BRUTON'S TYROSINE KINASE (BTK) BY CONJUGATION OF BTK INHIBITORS WITH E3 LIGASE LIGAND AND METHODS OF USE” (BeiGene Switzerland GmbH, priority 2021, published 2024).
Where two headings read alike, the source gives them in different places.

Legend:
BTK = target: T1, BTK (Homo sapiens, UniProt Q06187); assay: BTK degradation in TMD-8 cells (HTRF assay); format: cell-based; conditions: 6 h treatment, IC50 (DC50) of BTK degradation
T1 construct: High control=Cell group with added DMSO and without compound, indicating microplate readings without BTK degradation; endogenous in cells; host or cells: TMD-8
Experimental: (§1) TMD-8 cells were treated with compounds diluted in 0.2% DMSO, dilution was done according to the following protocol: (1) making 500× stock solution in DMSO from 1 mM by 6-fold dilution, total 8 doses were included; (2) making 2× solution in cell culture medium by transferring 0.5 μl 500× stock solution into 125 μl medium; (3) adding 15 μl of 2× solution to cells for incubation of 6 h.
After 6 h treatment, 10 μl 4× lysis buffer was added to each well; the plate was sealed and incubated for 30 min at room temperature on a plate shaker; Once the cells was lysed, 16 μL of cell lysate were transferred to a PE 384-well HTRF detection plate; 4 μL of pre-mixed HTRF antibodies were added to each well; the plate was covered with a plate sealer, and then spinned at 1000 rpm for 1 min, then incubated overnight at room temperature; the results were read on BMG PheraStar with HTRF protocol (337 nm-665 nm-620 nm).
The IC50 (DC50) value of a compound can be obtained by fitting the following equation
(§2) wherein, X and Y are known values, and IC50, Hillslope, Top and Bottom are the parameters obtained by fitting with software. Y is the inhibition percentage (calculated from the equation), X is the concentration of the compound; IC50 is the concentration of the compound when the 50% inhibition is reached. The smaller the IC50 value is, the stronger the inhibitory ability of the compound is. Vice versa, the higher the IC50 value is, the weaker the ability the inhibitory ability of the compound is; Hillslope represents the slope of the fitted curve, generally around 1 *; Bottom represents the minimum value of the curve obtained by data fitting, which is generally 0%±20%; Top represents the maximum value of the curve obtained by data fitting, which is generally 100%±20%. The experimental data were fitted by calculating and analyzing with Dotmatics data analysis software.

HEK-293 cells = assay: HEK-293 cytotoxicity detection (CellTiter-Glo); format: cell-based; conditions: HEK-293 cells, 72 h incubation, CellTiter-Glo luminescence, IC50 of cell proliferation inhibition, read-out: HEK293
Experimental: as §1, with “HEK-293 cells” for “TMD-8 cells”, “from 5” for “from 1”, “by 4-fold” for “by 6-fold”, “0.5 ul” for “0.5 μl”, “adding 50” for “adding 15”, “of 72” for “of 6”
25 μl of the CellTiter-Glo®Reagent [(Promega) -Cat No. G7572] was added to each well in the 96-well plate. The contents were mixed for 2 minutes on an orbital shaker to induce cell lysis. The plate was then allowed to incubate at room temperature for 10 minutes to stabilize luminescent signal. Luminescence was recorded on BMG PheraStar with luminescence protocol.
The IC50 value of a compound can be obtained by fitting the following equation
as §2, with “Wherein,” for “wherein,”

T1 sequence (Q06187 whole entry): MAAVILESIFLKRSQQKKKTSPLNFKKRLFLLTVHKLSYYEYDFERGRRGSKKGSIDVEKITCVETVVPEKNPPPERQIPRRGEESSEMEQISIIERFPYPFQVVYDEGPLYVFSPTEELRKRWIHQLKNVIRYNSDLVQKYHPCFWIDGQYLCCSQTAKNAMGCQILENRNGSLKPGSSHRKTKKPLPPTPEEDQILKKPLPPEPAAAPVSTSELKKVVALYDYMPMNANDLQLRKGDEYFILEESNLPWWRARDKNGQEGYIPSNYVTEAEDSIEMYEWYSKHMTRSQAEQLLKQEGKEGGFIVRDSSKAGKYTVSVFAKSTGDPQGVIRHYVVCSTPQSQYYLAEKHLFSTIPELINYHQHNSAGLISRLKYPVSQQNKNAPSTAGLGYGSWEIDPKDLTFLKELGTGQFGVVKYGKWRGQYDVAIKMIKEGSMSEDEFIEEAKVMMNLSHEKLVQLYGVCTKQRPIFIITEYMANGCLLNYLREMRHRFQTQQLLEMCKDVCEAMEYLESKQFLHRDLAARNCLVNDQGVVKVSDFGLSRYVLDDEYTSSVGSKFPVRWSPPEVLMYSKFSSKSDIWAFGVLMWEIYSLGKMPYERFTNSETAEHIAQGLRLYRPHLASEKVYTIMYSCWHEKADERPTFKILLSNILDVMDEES

| SMILES | DC50 (BTK) [nM] | IC50 (HEK-293 cells; Homo sapiens) [nM] | IC50 (HEK-293 cells) [nM] |
| --- | --- | --- | --- |
| Cc1cc(-c2ncnc3[nH]c4ccc(C5CCN(CC6CCN(c7ccc(N8CCC(=O)NC8=O)cc7)CC6)CC5)cc4c23)ccc1CNC(=O)c1nc(C(C)(C)C)no1 [Example 2, 3-(tert-butyl)-N-(4-(6-(1-((1-(4-(2,4-dioxotetrahydropyrimidin-1(2H)-yl)phenyl)piperidin-4-yl)methyl)piperidin-4-yl)-9H-pyrimido[4,5-b]indol-4-yl)-2-methylbenzyl)-1,2,4-oxadiazole-5-carboxamide] | > 2000 | 3950 |  |
| Cc1cc(-c2ncnc3[nH]c4cc(N5CCN(C6CC(c7ccc([C@@H]8CCC(=O)NC8=O)cc7)C6)CC5)ccc4c23)ccc1[C@@H](C)NC(=O)c1nc(C2(C)CC2)no1 (stereo partly drawn) [Example 68, N—((R)-1-(4-(7-(4-(3-(4-((S)-2,6-dioxopiperidin-3-yl)phenyl)cyclobutyl)piperazin-1-yl)-9H-pyrimido[4,5-b]indol-4-yl)-2-methylphenyl)ethyl)-3-(1-methylcyclopropyl)-1,2,4-oxadiazole-5-carboxamide] | 1.6 |  | > 10000 |
| Cc1cc(-c2ncnc3[nH]c4cc(N5CCN(C6CN(C7CN(c8ccc9c(c8)C(=O)N(C8CCC(=O)NC8=O)C9=O)C7)C6)CC5)ccc4c23)ccc1[C@@H](C)NC(=O)c1nc(C2(C)CC2)no1 (stereo partly drawn) [Example 121, N-((1R)-1-(4-(7-(4-(1′-(2-(2,6-dioxopiperidin-3-yl)-1,3-dioxoisoindolin-5-yl)-[1,3′-biazetidin]-3-yl)piperazin-1-yl)-9H-pyrimido[4,5-b]indol-4-yl)-2-methylphenyl)ethyl)-3-(1-methylcyclopropyl)-1,2,4-oxadiazole-5-carboxamide] | 1.58 | > 10000 |  |
| COc1cc2c(cc1N1CCN(C3CCC(c4ccc(C5CCC(=O)NC5=O)cc4)CC3)CC1)[nH]c1ncnc(-c3ccc([C@@H](C)NC(=O)c4nc(C(C)(C)C)no4)c(C)c3)c12 (stereo partly drawn) [Example 48, 3-(tert-butyl)-N-((1R)-1-(4-(7-(4-(4-(4-(2,6-dioxopiperidin-3-yl)phenyl)cyclohexyl)piperazin-1-yl)-6-methoxy-9H-pyrimido[4,5-b]indol-4-yl)-2-methylphenyl)ethyl)-1,2,4-oxadiazole-5-carboxamide] | 0.874 | > 10000 |  |
| COc1cc2c(cc1N1CCN(C3CC(c4ccc([C@H]5CCC(=O)NC5=O)cc4)C3)CC1)[nH]c1ncnc(-c3ccc([C@@H](C)NC(=O)c4nc(C(C)(C)C)no4)c(C)c3)c12 (stereo partly drawn) [Example 50, 3-(tert-butyl)-N—((R)-1-(4-(7-(4-(3-(4-((R)-2,6-dioxopiperidin-3-yl)phenyl)cyclobutyl)piperazin-1-yl)-6-methoxy-9H-pyrimido[4,5-b]indol-4-yl)-2-methylphenyl)ethyl)-1,2,4-oxadiazole-5-carboxamide] | 0.171 | > 10000 |  |
| Cc1cc(-c2ncnc3[nH]c4cc([C@@H]5CCN(CC6CCN(c7ccc(N8CCC(=O)NC8=O)cc7)CC6)C5)ccc4c23)ccc1[C@@H](C)NC(=O)c1nc(C(C)(C)C)no1 [Example 13, 3-(tert-butyl)-N—((R)-1-(4-(7-((S)-1-((1-(4-(2,4-dioxotetrahydropyrimidin-1(2H)-yl)phenyl)piperidin-4-yl)methyl)pyrrolidin-3-yl)-9H-pyrimido[4,5-b]indol-4-yl)-2-methylphenyl)ethyl)-1,2,4-oxadiazole-5-carboxamide] | 1.05 | 3260 |  |
| Cc1c([C@@H](C)NC(=O)c2noc(C(C)(C)C)n2)ccc(-c2ncnc3[nH]c4cc(N5CCN(Cc6cccc7c6C(C)(C)C(=O)N7C6CCC(=O)NC6=O)CC5)ccc4c23)c1F (stereo partly drawn) [Example 84, 5-(tert-butyl)-N-((1R)-1-(4-(7-(4-((1-(2,6-dioxopiperidin-3-yl)-3,3-dimethyl-2-oxoindolin-4-yl)methyl)piperazin-1-yl)-9H-pyrimido[4,5-b]indol-4-yl)-3-fluoro-2-methylphenyl)ethyl)-1,2,4-oxadiazole-3-carboxamide] | 8.15 | > 10000 |  |
